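In this assay, cells in 96-well plates receive the compound at five concentrations for 48 hours. Endpoints are linearly interpolated between the surrounding concentrations. GI50 marks 50% less growth. TGI: total growth inhibition.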
Tests used:
Assay in all cases: growth of human tumour cells (NCI), 48 h
[1] = tested on: SR leukemia
[2] = tested on: NCI-H522 lung
[3] = tested on: OVCAR-5 ovarian
[4] = tested on: RXF 393 renal
[5] = tested on: SW-620 colon
[6] = tested on: NCI-H460 lung
[7] = tested on: COLO 205 colon
[8] = tested on: EKVX NSCLC
[9] = tested on: TK-10 renal
[10] = tested on: SNB-75 CNS

| SMILES | GI50 [1] | TGI [1] | GI50 [2] | TGI [2] | GI50 [3] | TGI [3] | GI50 [4] | TGI [4] | GI50 [5] | TGI [5] | GI50 [6] | TGI [6] | GI50 [7] | TGI [7] | GI50 [8] | TGI [8] | GI50 [9] | TGI [9] | TGI [10] | GI50 [10] |
| --- | --- | --- | --- | --- | --- | --- | --- | --- | --- | --- | --- | --- | --- | --- | --- | --- | --- | --- | --- | --- |
| NC(N)=NCCC1OC(=O)C2=C1c1c(O)ccc3nccc(c13)O2 (stereo not given) | > 100 µM | > 100 µM | > 100 µM | > 100 µM | > 100 µM | > 100 µM | > 100 µM | > 100 µM | > 100 µM | > 100 µM | > 100 µM | > 100 µM | > 100 µM | > 100 µM | > 100 µM | > 100 µM | > 100 µM | > 100 µM | – | – |
| CCC1=NC(CO)[C@H](c2ccccc2)O1 (stereo not given in full) | – | > 100 µM | – | – | – | > 100 µM | – | > 100 µM | – | > 100 µM | – | > 100 µM | – | > 100 µM | – | > 100 µM | – | > 100 µM | > 100 µM | – |
| C/C(=N\N(c1ccccc1)c1ccccc1)c1c(O)cc(C)oc1=O | – | > 100 µM | – | > 100 µM | – | – | – | – | – | > 100 µM | – | > 100 µM | – | – | – | > 100 µM | – | > 100 µM | > 100 µM | – |
| COc1ccc(/C=C2\CCCC(C(NO)c3ccc(OC)cc3)C2=NO)cc1 (stereo not given) | – | – | – | 82 µM | – | – | – | 96.7 µM | – | > 100 µM | – | > 100 µM | – | > 100 µM | – | > 100 µM | – | > 100 µM | 79.6 µM | – |
| CC[PH+](CC)CC.O=COC1OC([S-])C(OC=O)C(OC=O)C1OC=O.[Au+] (stereo not given) | – | – | 1.17 µM | 3.97 µM | 1.89 µM | 3.53 µM | 1.35 µM | 2.72 µM | 1.85 µM | 3.83 µM | 1.71 µM | 3.69 µM | 2.23 µM | 4.7 µM | 1.74 µM | 3.32 µM | 1.74 µM | 3.39 µM | 1.77 µM | 0.374 µM |
| CCn1c2ccc(O)cc2c2c(C)c3c[n+](C)ccc3c(C)c21 | – | – | 1.46 µM | 10.4 µM | 23.8 µM | > 100 µM | 5.58 µM | > 100 µM | 3.85 µM | > 100 µM | 0.752 µM | 11 µM | 3.03 µM | 17.3 µM | 10.9 µM | > 100 µM | 24.3 µM | > 100 µM | 35.8 µM | 1.18 µM |
| CC1=C(C(=O)Nc2cccc(Cl)c2)C(c2ccccc2F)C(C(=O)Nc2cccc(Cl)c2)=C(C)N1 | – | – | – | 23.1 µM | – | 37.2 µM | – | 22.4 µM | – | 64.6 µM | – | 24.1 µM | – | 26.3 µM | – | 27.5 µM | – | 68.2 µM | 54.9 µM | – |
| Cc1cc(S(=O)(=O)NC#N)c(S/C(=N\Nc2ccc([N+](=O)[O-])cc2)c2ccc(Cl)cc2)cc1Cl | – | – | 21.8 µM | 89.5 µM | 44 µM | > 100 µM | 34.4 µM | > 100 µM | 21.1 µM | 52.1 µM | 26.7 µM | > 100 µM | 15.2 µM | 30.7 µM | 20.2 µM | 70.2 µM | 25 µM | > 100 µM | > 100 µM | 38.1 µM |

Source: PubChem BioAssay (NCI)
